Holding throughout (assay type): cell-based
The test system of test [1] is embryonic rat cardiac mesenchymal stem cells and rat bone marrow. As to the kind of experiment: Derivation of Isl1+ cells from rat mesenchymal stem cells on laminins in Wnt-medium (Isl1 immunostaining). As to conditions: on LN-521 in combination with hypoxia, two weeks in culture (5 passages). The text has this: In order to further improve feeder free culturing systems where the origin and expansion of multipotent cells could be followed, the inventors synthesized a plasmid construct comprising parts of the Isl1-promotor region linked to the fluorescent marker green fluorescent protein (GFP). The plasmid was introduced into the cells by means of electroporation. Mesenchymal cells (i) derived from rat embryonic hearts, (ii) obtained from rat bone marrow, (iii) obtained from the bone marrow of young healthy donors, (iv) obtained from human cord blood and other types of perinatal tissue, (v) isolated from human amniotic sources, (v) isolated from human adult cardiac tissue were labeled with the Isl1 gene construct concomitant to the addition of Wnt-containing medium (100 ng/ml Wnt-3a and […] BIO). […] In culture the cells grew to confluency and were passaged every other day. At each passage, cells were analysed immunohistochemically for the expression of Isl1.
For each experiment 10 pregnant sprague-dawley rats (gestational day, GD, 13 to 14) were used. The rats were euthanized in a CO2 chamber after which the whole embryos (approximately 10 embryos/rat) were removed through a low midline abdominal incision. From each embryo the heart was removed under microscope, minced into small pieces and rinsed repetitively with Hank's buffered salt solution (HBSS) (GibcoBRL, NY, USA). […]

Test [2] deals with multipotent cells (MSCs). The test can be described thus: Growth curves of multipotent cells (MSCs). Conditions: LN-521 under hypoxia versus standard conditions (plastic under normoxia). The text has this: Cells can be grown under hypoxic conditions using a variety of methods. Normally, hypoxic conditions for cell culturing are defined as culturing of cells in an atmosphere containing 5% or less of oxygen.

For test [3], the system named is Isl1 cells. As to the kind of experiment: qRT-PCR of multipotency and differentiation markers in cells grown under various conditions. Conditions: LN-521 under hypoxia versus LN-521 normoxia, plastic hypoxia.

The values below come from US20190112578A1, “Derivation and Self-Renewal of Multipotent Cells and Uses Thereof” (IsletOne AB, priority 2016, published 2019).

Consider “LN-521: laminin heterotrimeric glycoprotein comprising an α5 chain, coated on cell culture plastic”, for which, in test [1], the “cells expressing Isl1” value is given as 80±15%. Further, the “proliferation (growth curve)” value in test [2] is reported as “significantly faster”. In test [3], the “Isl1, KDR and Nkx_2_5 mRNA transcripts” value is “significantly higher”; the “Troponin T2 transcripts” value is given as “lower”.
